Experimental data published in patent US20260232709A1, “COMPOSITION COMPRISING MELOSIDE FOR ALLEVIATING HAIR LOSS AND IMPROVING HAIR GROWTH” (MORECHEM CO., LTD., priority 2024, published 2026).
“Also recorded” adds a separate entry of the source.

Columns and labels:
[1] = test system: human dermal papilla cells (HDPC); experiment: Cytotoxicity / growth-proliferation of dermal papilla cells (CCK-8); type: cell-based; conditions: 10, 30, 50, 100 ppm, 1 day, CCK-8, 450 nm, FIG. 1
Method: Human hair dermal papilla cells (HDPC), used in the test examples described below, were cultured in Dulbecco's Modified Eagle Medium (DMEM, WELGENE) supplemented with 10% Fetal Bovine Serum (FBS, WELGENE) and 1% antibiotics (Penicillin-Streptomycin, WELGENE) as the culture medium, in an incubator at 37° C., 5% CO2, and humid conditions.
(§1) Specifically, after treating human dermal papilla cells (HDPC) or human outer root sheath cells (ORS) with Meloside A or Meloside L at concentrations of 10, 30, 50, and 100 ppm for 1 day, CCK-8 (Cell Counting Kit-8, Dojindo, EU) reagent was added to the treated HDPC according to the manufacturer's protocol. Absorbance was then measured at a wavelength of 450 nm using a microplate reader (BioTeK, USA), and the extent of HDPC growth/proliferation by Meloside treatment was compared and confirmed against the negative control group (treated with DMEM instead of Meloside A or L).

[2] = test system: Vascular Endothelial Growth Factor (VEGF); experiment: VEGF expression in HDPC supernatant (ELISA); type: cell-based, human; conditions: 30 or 100 ppm, 1 day, FIG. 8
Method: HDPC were treated with Meloside A or L at concentrations of 30 or 100 ppm, respectively, for 1 day to obtain the cell supernatant. For comparison, HDPC that were not treated with either Meloside A or L were used as the negative control group, and HDPC treated with 100 μM Minoxidil were used as the positive control group.
The increase or decrease in VEGF expression level in the obtained cell supernatant was confirmed through an Enzyme-Linked Immunosorbent Assay (ELISA) method, and the results are shown in FIG. 8.

[3] = test system: human outer root sheath cells (ORS); experiment: Cytotoxicity / growth-proliferation of outer root sheath cells (CCK-8); type: cell-based; conditions: 10, 30, 50, 100 ppm, 1 day, CCK-8, 450 nm, FIG. 2
Method: Human Hair Outer Root Sheath Cells (ORS), used in the test examples described below, were cultured in culture plates coated with Poly-L-Lysine, using Mesenchymal Stem Cell Medium (MSCM, ScienCell) supplemented with 5% Fetal Bovine Serum (FBS, ScienCell), 1% Mesenchymal stem cell growth supplement (MSCGS, ScienCell), and antibiotics (Penicillin-Streptomycin, ScienCell) as the culture medium, in an incubator at 37° C., 5% CO2, and humid conditions.
as §1

[4] = test system: reactive oxygen species (ROS); experiment: DHT-induced intracellular reactive oxygen species in HDPC (DCF-DA fluorescence); type: cell-based, human; conditions: 30 or 100 ppm with 100 μg/mL DHT, 24 hours, FIGS. 12 and 13
Method: The intracellular reactive oxygen species inhibition effect was evaluated using human hair dermal papilla cells (HDPC). Measurement was performed by utilizing the principle that the non-fluorescent substance 2′,7′-dichlorodihydrofluorescein diacetate (DCF-DA) reacts with intracellularly generated free radicals and oxidizes into the fluorescent substance 2′,7′-dichlorofluorescein (DCF).
Human dermal papilla cells were seeded into 12-well plates at 5.5×10^4 cells/well and cultured for 24 hours in a 37° C., 5% CO2 incubator. Subsequently, samples prepared at various concentrations were treated into each well and cultured for 23 hours in a 37° C., 5% CO2 incubator. For the treated groups, Meloside A or L at 30 or 100 ppm were treated along with DHT. For control groups, HDPC treated with 100 μg/mL DHT but without Meloside A and L, and untreated HDPC (neither Meloside A or L nor DHT) were used. […] After removing DCF-DA and washing twice with PBS, images were taken every 10 minutes for 30 minutes using a fluorescence microscope at Ex 485 nm and Em 535 nm. The level of intracellular reactive oxygen species generation was measured by quantifying fluorescence intensity in […] using Image J, thereby confirming the ROS reduction efficacy of Meloside.

[5] = test system: dermal papilla cells (HDPC); experiment: Protection against DKK1-induced death of dermal papilla cells (CCK-8); type: cell-based, human; conditions: 30 or 100 ppm for 1 day, then DKK1, FIG. 10
Method: (§2) Specifically, HDPC were treated with Meloside A or L at concentrations of 30 or 100 ppm, respectively, for 1 day, and then cell death was induced with DKK1 (dickkopf WNT signaling pathway inhibitor 1). For comparison, HDPC that were neither treated with Meloside A or L nor with DHT were used as the negative control group. HDPC treated with DHT but without Meloside A and L were used as the untreated group. HDPC treated with 100 μM Minoxidil or 5 mM NAC followed by DHT treatment were used as the positive control group.
(§3) CCK-8 (Cell Counting Kit-8, Dojindo, EU) reagent was added to the HDPC according to the manufacturer's protocol, and absorbance was measured at a wavelength of 450 nm using a microplate reader (BioTeK, USA) to confirm the cell viability of dermal papilla cells because of Meloside treatment, compared to the negative control group (treated with DMEM instead of Meloside A or L).

[6] = test system: dermal papilla cells (HDPC); experiment: Protection against DHT-induced death of dermal papilla cells (CCK-8); type: cell-based, human; conditions: 30 or 100 ppm for 1 day, then DHT, FIG. 9
Method: as §2, with “Dihydrotestosterone (DHT),” for “DKK1 (dickkopf WNT signaling pathway inhibitor 1).”, “NAC (N-acetyl cysteine)” for “NAC”
as §3

For `O=c1cc(-c2ccc(O)cc2)oc2cc(O)c([C@@H]3O[C@H](CO)[C@@H](O)[C@H](O)[C@H]3O[C@@H]3O[C@H](CO)[C@@H](O)[C@H](O)[C@H]3O)c(O)c12` [Meloside A, isovitexin 2″-O-glucoside], the “cell growth/proliferation (cytotoxicity) of HDPC vs negative control” value [1] was “comparable levels of cell growth/proliferation to the negative control group”, the VEGF expression level [2] was “increase in VEGF expression; also recorded: superior to that of Meloside L” and the “cell growth/proliferation (cytotoxicity) of ORS vs negative control” value [3] was “comparable levels of cell growth/proliferation to the negative control group”. For the same compound, the “reactive oxygen species (ROS) generation” value [4] was “reduction in reactive oxygen species (ROS) generation”, the “cell protective effect against DKK1 (cell viability)” value [5] was “cell protective effect against DKK1 was confirmed” and the “cell protective effect against DHT (cell viability)” value [6] was “cell protective effect against DHT was confirmed”.
For `O=c1cc(-c2ccc(O)c(O)c2)oc2cc(O)c([C@@H]3O[C@H](CO)[C@@H](O)[C@H](O)[C@H]3O[C@@H]3O[C@H](CO)[C@@H](O)[C@H](O)[C@H]3O)c(O)c12` [Meloside L, isoorientin 2″-O-glucoside], the “cell growth/proliferation (cytotoxicity) of HDPC vs negative control” value [1] was “comparable levels of cell growth/proliferation to the negative control group”, the VEGF expression level [2] was “increase in VEGF expression” and the “cell growth/proliferation (cytotoxicity) of ORS vs negative control” value [3] was “comparable levels of cell growth/proliferation to the negative control group”. The “reactive oxygen species (ROS) generation” value [4] was “reduction in reactive oxygen species (ROS) generation”, the “cell protective effect against DKK1 (cell viability)” value [5] was “no cell protective effect against DKK1 was observed” and the “cell protective effect against DHT (cell viability)” value [6] was “no cell protective effect against DHT was observed”.
